Reference: US11753411B2, “Substituted pyrazolo[1,5-a]pyrimidines as TYK2 pseudokinase ligands” (Ventyx Biosciences, Inc., priority 2019, dated 2023)

Tested on: IFN-a/Jak1 Tyk2
Test: Co-stimulation assay in lysed whole blood: IFNa (JAK1/TYK2) stimulated STAT1 phosphorylation
Assay type: cell-based
Settings: 100 ng/mL IFNa (with 10 ng/mL GM-CSF), pSTAT by flow cytometry
Procedure: Example 12: Co-Stimulation Assay in Lysed Whole Blood; JAK2: GM-CSF Stimulated STAT5 Phosphorylation and JAK1/TYK2 Stimulated STAT1 Phosphorylation Assay
Human Blood Lysis Using Abcam's RBC Lysis Buffer
Dilute RBC lysis buffer to 1× in distilled water. Add 2 mL blood to 38 mL of 1×RBC-lysis buffer. Incubate for 15 mins at RT, in dark. Spin at 300 g, 5 mins, to collect the pellet. Re-lyse if necessary. Re-suspend pellet in 5 mL of cRPMI.
Compound and Cytokine Treatment
Aliquot 80 μL of lysed human blood in to wells of 96 deep-well plate. Add 10 μl of (10× conc.) of different concentrations of compounds to all wells except controls (unstained and unstimulated) and mix it with the help of 100 uL multichannel. Add 10 uL of RPMI media in controls. For dilution of compounds and dilution range please refer Appendix. Incubate on water bath or CO2 incubator for 1 hour at 37° C. Add 10 μl of (10× conc.) of cytokine mix (GM-CSF and IFNa) (final conc.10 ng/mL of GM-CSF and 100 ng/mL of IFNa) to each well except unstimulated and unstained controls and incubate further for 20 minutes on water bath at 37° C.
Add 900 μL of prewarmed 1× Fix/Lyse solution (Appendix) and mix it properly using 1000 μl multichannel, incubate further on water bath at 37° C. for 10 minutes (which includes time of addition). Centrifuge at 800×g for 5 minutes at 40° C.; remove 900 uL of supernatant and add 900 μL of 1×PBS. Centrifuge at 800×g for 5 minutes at 40° C., remove 900 μL of supernatant. Wash one more time with 900 μL of PBS (optional) and resuspend pellets in 100 uL of PBS.
Disrupt the pellet by gentle tapping and resuspend in 1000 μL of BD Phosflow Perm Buffer III and incubate plate on ice for 30 minutes. Centrifuge plate at 800×g for 5 minutes at 40° C. Wash two more times with 1000 μL of BD Pharmingen Stain Buffer.
Disrupt the pellet by gentle tapping. Resuspend pellets in 100 uL of Stain Buffer and add 5 μL of pSTAT5_AF488 Ab and 5 uL of pSTAT_PE in all wells except unstained control and mix properly using 200 μl multichannel, incubate overnight at […]. Add 900 μL of wash buffer and centrifuge at 1800 rpm for 3 minutes at 40° C. Wash one more time with 1000 μL of BD Pharmingen Stain Buffer. Finally resuspend the pellet in 300 uL of BD Pharmingen Stain Buffer. Transfer the cells to 96-well v-bottom plate and acquire the cells in Beckman Coulter CytExpert. Acquiring cells in Flow Cytometer: Keep the threshold value to 250 and cell concentration should not exceed 100-500 cells/μL. Acquire at least 5,000-10,000 cells.
RPMI 1640 Complete Medium: RPMI 1640 media+10% FBS.
Cytokine dilution: 1) GM-CSF Stock at 100 ug/mL. Prepare an intermediate dilution of 1 ug/mL by adding 2 uL of stock into 198 uL of cRPMI. Further dilute to 100 ng/mL by adding 100 uL of the intermediate stock to 900 uL of cRPMI. 2) IFNa Stock at 200 ug/mL. Dilute IFNa stock 1:200 by adding 5 uL of stock into the 1000 uL of 100 ng/mL GM-CSF working stock as above to give a combined working stock of 1000 ng/mL of IFNa and 100 ng/mL GM-CSF (10×). Keep it on ice until used.
Lyse/Fix buffer preparation: Dilute 5× Lyse/Fix buffer to 1× using MQ water and keep at 37° C. until used.
BD Phosflow perm buffer III: Keep on ice/fridge.

IC50 (Homo sapiens, 20 min) | IC50 (lysed human whole blood, 20 minutes) | SMILES
≥ 10 µM | – | CNc1c(F)c(Nc2cccc3c2OCCO3)nc2c(NC(=O)N[C@@H]3C[C@@H]3F)cnn12 [Compound 55, 1-(5-((2,3-dihydrobenzo[b][1,4]dioxin-5-yl)amino)-6-fluoro-7-(methylamino)pyrazolo[1,5-a]pyrimidin-3-yl)-3-((1R,2S)-2-fluorocyclopropyl)urea]
≥ 10 µM | – | CNc1cc(Nc2c(F)ccc3c2OCCO3)nc2c(NC(=O)N[C@@H]3C[C@@H]3F)cnn12 [Compound 175, 1-(5-((6-fluoro-2,3-dihydrobenzo[b][1,4]dioxin-5-yl)amino)-7-(methylamino)pyrazolo[1,5-a]pyrimidin-3-yl)-3-((1R,2S)-2-fluorocyclopropyl)urea]
1 to 10 µM | – | CNC(=O)Nc1cnn2c(NC)cc(Nc3cccn(-c4ccc(OC)nn4)c3=O)nc12 [Compound 17, 1-(5-((1-(6-methoxypyridazin-3-yl)-2-oxo-1,2-dihydropyridin-3-yl)amino)-7-(methylamino)pyrazolo[1,5-a]pyrimidin-3-yl)-3-methylurea]
< 1 µM | – | CNC(=O)Nc1cnn2c(NC)cc(Nc3cc(C)cc(C)c3)nc12 [Compound 152, 1-(5-((3,5-dimethylphenyl)amino)-7-(methylamino)pyrazolo[1,5-a]pyrimidin-3-yl)-3-methylurea]
< 1 µM | – | [2H]C([2H])([2H])Nc1cc(Nc2cc(F)cc3c2OCCO3)nc2c(NC(=O)N[C@@H]3C[C@@H]3F)cnn12 [Compound 49, 1-(5-((7-fluoro-2,3-dihydrobenzo[b][1,4]dioxin-5-yl)amino)-7-((methyl-d3)amino)pyrazolo[1,5-a]pyrimidin-3-yl)-3-((1R,2S)-2-fluorocyclopropyl)urea]
< 1 µM | – | CNC(=O)Nc1cnn2c(NC)cc(Nc3cc(C4CC4)cc4c3OCCO4)nc12 [Compound 96, 1-(5-((7-cyclopropyl-2,3-dihydrobenzo[b][1,4]dioxin-5-yl)amino)-7-(methylamino)pyrazolo[1,5-a]pyrimidin-3-yl)-3-methylurea]
< 1 µM | – | C#CCNC(=O)Nc1cnn2c(NC)cc(Nc3cc(F)cc4c3OCCO4)nc12 [Compound 111, 1-(5-((7-fluoro-2,3-dihydrobenzo[b][1,4]dioxin-5-yl)amino)-7-(methylamino)pyrazolo[1,5-a]pyrimidin-3-yl)-3-(prop-2-yn-1-yl)urea]
≥ 10 µM | – | CNC(=O)Nc1c(F)nn2c(NC)cc(Nc3cccc4c3OCCO4)nc12 [Compound 110, 1-(5-((2,3-dihydrobenzo[b][1,4]dioxin-5-yl)amino)-2-fluoro-7-(methylamino)pyrazolo[1,5-a]pyrimidin-3-yl)-3-methylurea]
< 1 µM | – | CNc1cc(Nc2cc(C)cc(C)c2)nc2c(NC(=O)NCC#N)cnn12 [Compound 128, 1-(cyanomethyl)-3-(5-((3,5-dimethylphenyl)amino)-7-(methylamino)pyrazolo[1,5-a]pyrimidin-3-yl)urea]
< 1 µM | – | CNc1cc(Nc2cccc3c2OCCO3)nc2c(NC(=O)NC3COC3)cnn12 [Compound 117, 1-(5-((2,3-dihydrobenzo[b][1,4]dioxin-5-yl)amino)-7-(methylamino)pyrazolo[1,5-a]pyrimidin-3-yl)-3-(oxetan-3-yl)urea]
– | ≥ 10 µM | CNc1cc(Nc2c(F)ccc3c2OCCO3)nc2c(NC(=O)NCC#N)cnn12 [Compound 174, 1-(cyanomethyl)-3-(5-((6-fluoro-2,3-dihydrobenzo[b][1,4]dioxin-5-yl)amino)-7-(methylamino)pyrazolo[1,5-a]pyrimidin-3-yl)urea]
< 1 µM | – | [2H]C1([2H])Oc2cc(F)cc(Nc3cc(NC)n4ncc(NC(=O)N[C@@H]5C[C@@H]5F)c4n3)c2OC1([2H])[2H] [Compound 182, 1-(5-((7-fluoro-2,3-dihydrobenzo[b][1,4]dioxin-5-yl-2,2,3,3-d4)amino)-7-(methylamino)pyrazolo[1,5-a]pyrimidin-3-yl)-3-((1R,2S)-2-fluorocyclopropyl)urea]
1 to 10 µM | – | CNc1cc(Nc2cc(F)cc3c2OC[C@H](CO)O3)nc2c(NC(=O)N[C@@H]3C[C@@H]3F)cnn12 [Compound 185, 1-(5-(((S)-7-fluoro-2-(hydroxymethyl)-2,3-dihydrobenzo[b][1,4]dioxin-5-yl)amino)-7-(methylamino)pyrazolo[1,5-a]pyrimidin-3-yl)-3-((1R,2S)-2-fluorocyclopropyl)urea]
1 to 10 µM | – | CNC(=O)Nc1cnn2c(NC)cc(Nc3cccc4c3OC(C)(C)O4)nc12 [Compound 116, 1-(5-((2,2-dimethylbenzo[d][1,3]dioxol-4-yl)amino)-7-(methylamino)pyrazolo[1,5-a]pyrimidin-3-yl)-3-methylurea]
< 1 µM | – | CNc1cc(Nc2cc(F)cc3c2OCCO3)nc2c(NC(=O)NCCOC)cnn12 [Compound 113, 1-(5-((7-fluoro-2,3-dihydrobenzo[b][1,4]dioxin-5-yl)amino)-7-(methylamino)pyrazolo[1,5-a]pyrimidin-3-yl)-3-(2-methoxyethyl)urea]
1 to 10 µM | – | CNc1cc(Nc2cc(F)cc3c2OCCO3)nc2c(NC(=O)NCC(F)F)cnn12 [Compound 133, 1-(2,2-difluoroethyl)-3-(5-((7-fluoro-2,3-dihydrobenzo[b][1,4]dioxin-5-yl)amino)-7-(methylamino)pyrazolo[1,5-a]pyrimidin-3-yl)urea]
1 to 10 µM | – | CNC(=O)Nc1cnn2c(NC)cc(Nc3cccnc3OC3CCOCC3)nc12 [Compound 94, 1-methyl-3-(7-(methylamino)-5-((2-((tetrahydro-2H-pyran-4-yl)oxy)pyridin-3-yl)amino)pyrazolo[1,5-a]pyrimidin-3-yl)urea]
≥ 10 µM | – | CNc1cc(Nc2cccc3c2OCCO3)nc2c(NC(=O)NC3(C#N)CC3)cnn12 [Compound 28, 1-(1-cyanocyclopropyl)-3-(5-((2,3-dihydrobenzo[b][1,4]dioxin-5-yl)amino)-7-(methylamino)pyrazolo[1,5-a]pyrimidin-3-yl)urea]
≥ 10 µM | – | CNc1cc(Nc2c(F)c(F)cc3c2OCCO3)nc2c(NC(=O)N[C@@H]3C[C@@H]3F)cnn12 [Compound 61, 1-(5-((6,7-difluoro-2,3-dihydrobenzo[b][1,4]dioxin-5-yl)amino)-7-(methylamino)pyrazolo[1,5-a]pyrimidin-3-yl)-3-((1R,2S)-2-fluorocyclopropyl)urea]
1 to 10 µM | – | CNc1cc(Nc2cc(F)cc3c2OCCO3)nc2c(NC(=O)NC3CCC3C#N)cnn12 (stereo not drawn) [Compound 46, 1-(2-cyanocyclobutyl)-3-(5-((7-fluoro-2,3-dihydrobenzo[b][1,4]dioxin-5-yl)amino)-7-(methylamino)pyrazolo[1,5-a]pyrimidin-3-yl)urea]
< 1 µM | – | CNc1cc(Nc2cc(F)cc3c2OCCO3)nc2c(NC(=O)N[C@H]3C[C@H]3F)cnn12 [Compound 42, 1-(5-((7-fluoro-2,3-dihydrobenzo[b][1,4]dioxin-5-yl)amino)-7-(methylamino)pyrazolo[1,5-a]pyrimidin-3-yl)-3-((1S,2R)-2-fluorocyclopropyl)urea]
< 1 µM | – | CNC(=O)Nc1cnn2c(NC)cc(Nc3cc(F)cc4c3OCCC4)nc12 [Compound 158, 1-(5-((6-fluorochroman-8-yl)amino)-7-(methylamino)pyrazolo[1,5-a]pyrimidin-3-yl)-3-methylurea]
1 to 10 µM | – | CNC(=O)Nc1cnn2c(NC)cc(Nc3cc(OC)ccc3OC)nc12 [Compound 67, 1-(5-((2,5-dimethoxyphenyl)amino)-7-(methylamino)pyrazolo[1,5-a]pyrimidin-3-yl)-3-methylurea]
< 1 µM | – | CNC(=O)Nc1cnn2c(NC)cc(Nc3cccc4c3CCCO4)nc12 [Compound 154, 1-(5-(chroman-5-ylamino)-7-(methylamino)pyrazolo[1,5-a]pyrimidin-3-yl)-3-methylurea]
